ChEMBL document CHEMBL1201862, “PubChem BioAssay data set” (2004)
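Following 48 hours of exposure in 96-well plates, responses at five concentrations were used to interpolate endpoints linearly. GI50 marks 50% less growth.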 Active and inactive are the calls of the source. Cut-off read from the data, not from the text of the source: active = GI50 up to about 1.1 µM and inactive = higher.

Columns and labels:
Assay in all cases: growth of human tumour cells (NCI), 48 h
Malme-3M = tested on: Malme-3M
OVCAR-4 = tested on: OVCAR-4
HOP-62 = tested on: HOP-62
HCT-15 = tested on: HCT-15
SK-MEL-2 = tested on: SK-MEL-2
NCI-H460 = tested on: NCI-H460
SK-MEL-28 = tested on: SK-MEL-28
UO-31 = tested on: UO-31
DU-145 = tested on: DU-145
SN12C = tested on: SN12C
CAKI-1 = tested on: CAKI-1
U-251 = tested on: U-251
MCF7 = tested on: MCF7
OVCAR-5 = tested on: OVCAR-5
HL-60 = tested on: HL-60
TK-10 = tested on: TK-10
SF-295 = tested on: SF-295

Row | SMILES | GI50 (Malme-3M) | GI50 (OVCAR-4) | GI50 (HOP-62) | GI50 (HCT-15) [µM] | GI50 (SK-MEL-2) | GI50 (NCI-H460) | GI50 (SK-MEL-28) | GI50 (UO-31) | GI50 (DU-145) | GI50 (SN12C) | GI50 (CAKI-1) | GI50 (U-251) | GI50 (MCF7) | GI50 (OVCAR-5) | GI50 (HL-60) | GI50 (TK-10) | GI50 (SF-295)
1 | CN(C)CCNC(=O)c1cccc2[nH]c(-c3ccncc3)nc12 | 1.91 µM (inactive) | 9.29 µM (inactive) | 18.7 µM (inactive) | 2.89 | 4.28 µM (inactive) | 2.78 µM (inactive) | 1.86 µM (inactive) | 2.77 µM (inactive) | 7.76 µM (inactive) | 9.73 µM (inactive) | 2.55 µM (inactive) | 3.1 µM (inactive) | 3.44 µM (inactive) | 10.1 µM (inactive) | 1.01 µM (active) | 6.5 µM (inactive) | 3.02 µM (inactive)
2 | Cc1ccc(/N=N/c2c(O)ccc3cc(S(=O)(=O)O)ccc23)c(C)c1 | > 100 µM (inactive) | > 100 µM (inactive) | > 100 µM (inactive) | > 100 | > 100 µM (inactive) | > 100 µM (inactive) | > 100 µM (inactive) | > 100 µM (inactive) | > 100 µM (inactive) | > 100 µM (inactive) | > 100 µM (inactive) | > 100 µM (inactive) | > 100 µM (inactive) | > 100 µM (inactive) | 92.9 µM (inactive) | > 100 µM (inactive) | > 100 µM (inactive)
3 | COC(=O)/C=C1/OC(c2ccc(OC)cc2)=C(Cl)C1=O | 16.2 µM (inactive) | 16.3 µM (inactive) | 20.6 µM (inactive) | 17.5 | 17.2 µM (inactive) | 18.4 µM (inactive) | 17.3 µM (inactive) | 21 µM (inactive) | 18.2 µM (inactive) | 18.9 µM (inactive) | 13.5 µM (inactive) | 9.1 µM (inactive) | 8.32 µM (inactive) | 17.1 µM (inactive) | 3.8 µM (inactive) | 24.3 µM (inactive) | 19.9 µM (inactive)
4 | O=S(=O)(CC(O)C(Cl)(Cl)Cl)NNc1ccccc1 (centres undefined) | > 100 µM (inactive) | > 100 µM (inactive) | > 100 µM (inactive) | 72.1 | > 100 µM (inactive) | 75.3 µM (inactive) | > 100 µM (inactive) |  | > 100 µM (inactive) | > 100 µM (inactive) | > 100 µM (inactive) | > 100 µM (inactive) | > 100 µM (inactive) | > 100 µM (inactive) | 47.6 µM (inactive) | > 100 µM (inactive) | 80.7 µM (inactive)
5 | OCCO[P+]1(OCCO)n2c3ccc2C(c2ccccc2)=C2C=CC(=N2)C(c2ccccc2)=c2ccc(n21)=C(c1ccccc1)C1=NC(=C3c2ccccc2)C=C1 | 0.0408 µM (active) | 0.0719 µM (active) | 0.0708 µM (active) | 1.16 | 0.0481 µM (active) | 0.0378 µM (active) | 0.0408 µM (active) | 1.14 µM (inactive) | 0.0316 µM (active) | 0.0253 µM (active) | 0.783 µM (active) | 0.0152 µM (active) | 0.0267 µM (active) | 0.102 µM (active) | 0.0152 µM (active) | 0.119 µM (active) | 0.15 µM (active)
6 | Cc1c([N+](=O)[O-])ccc2c(NCCCN(C)C)ccnc12 | 17.2 µM (inactive) | 17.4 µM (inactive) | 31.1 µM (inactive) | 17.3 | 17.1 µM (inactive) | 16.3 µM (inactive) | 25.5 µM (inactive) | 13.7 µM (inactive) | 33 µM (inactive) | 29.1 µM (inactive) | 35.6 µM (inactive) | 27.4 µM (inactive) | 15.9 µM (inactive) | 29.6 µM (inactive) | > 100 µM (inactive) | 27.5 µM (inactive) | 22.2 µM (inactive)
7 | O=S(=O)(c1ccc2ccccc2c1)N1CCN(S(=O)(=O)c2ccc3ccccc3c2)CC1 | > 100 µM (inactive) | > 100 µM (inactive) | 33.5 µM (inactive) | > 100 | > 100 µM (inactive) | > 100 µM (inactive) | > 100 µM (inactive) | > 100 µM (inactive) | > 100 µM (inactive) | > 100 µM (inactive) | > 100 µM (inactive) | > 100 µM (inactive) | > 100 µM (inactive) | > 100 µM (inactive) | > 100 µM (inactive) | > 100 µM (inactive) | > 100 µM (inactive)
8 | COc1ccc2c(=O)c(O)c(-c3ccc(OC)c(OC)c3)oc2c1 | 15.1 µM (inactive) | 0.191 µM (active) | 3.98 µM (inactive) | 3.5 |  | 3.35 µM (inactive) | 8.53 µM (inactive) | 2.47 µM (inactive) | 4.04 µM (inactive) |  | 3.44 µM (inactive) | 3.52 µM (inactive) | 3.74 µM (inactive) | 20.8 µM (inactive) | 1.66 µM (inactive) | 4.91 µM (inactive) | 10.1 µM (inactive)
9 | O=C(NCCCN1CCN(CCCNC(=O)Nc2cccc3ccccc23)CC1)Nc1cccc2ccccc12 | 3.15 µM (inactive) | 25.4 µM (inactive) | 11.7 µM (inactive) | 16.6 | 18.7 µM (inactive) |  | 14.4 µM (inactive) | 16.6 µM (inactive) | 16.9 µM (inactive) | 16.3 µM (inactive) | 16.2 µM (inactive) | 5.46 µM (inactive) | 17.5 µM (inactive) | 15.1 µM (inactive) | 16.3 µM (inactive) | 14 µM (inactive) | 13.9 µM (inactive)
